This is an account of results in ChEMBL document CHEMBL5131448, “Tumor-microenvironmental-response Bi-functional molecules for efficient imaging and anti-tumor activity therapy” (Eur J Med Chem, 2022).

The structures appear in SMILES notation. Calls of active or inactive are those of the source. No cut-off for these calls is given here.

Series [1] relates to EA.hy 926. The series is described as follows: Induction of cell cycle arrest in human EA.hy 926 cells assessed as accumulation of cells at G1-pahse at 0.1 to 40 uM measured after 72 hrs by propidium iodide staining method. The class given is functional, cell-based. Particulars: dose 0.1-40 µM.
Series [2] has as its system HEK293. The series is described as follows: Cytotoxicity against human HEK293 cells measured after 72 hrs by MTT assay. Format: toxicity, cell-based. The settings on record: hek293, 72 h. In general terms: Formazan colour is commonly taken as a measure of viable cells.
For series [3], the system named is EA.hy 926. The series is described as follows: Effect on cell apoptosis in human EA.hy 926 cells assessed as promotion of apoptosis at 0.1 to 40 uM measured after 72 hrs by Annexin V-FITC/propidium iodide staining based flow cytometry. The class given is functional. The settings on record: dose 0.1-40 µM. (In general: A flow cytometer gives signals particle by particle.)

Series [4] concerns HeLa. The series is described as follows: Antiproliferative activity against human HeLa cells after 72 hrs by MTT assay. Format: functional, cell-based.
The test system of series [5] is EA.hy 926. The series is described as follows: Antiproliferative activity against human EA.hy 926 cells after 72 hrs by MTT assay. Format: functional, cell-based. The settings on record: EA.hy 926, 72 h.
Series [6] has as its system A549. The series is described as follows: Antiproliferative activity against human A549 cells after 72 hrs by MTT assay. Format: functional, cell-based. The settings on record: A549, 72 h.
Series [7] relates to MDA-MB-231. The series is described as follows: Antiproliferative activity against human MDA-MB-231 cells after 72 hrs by MTT assay. Format: functional, cell-based. The settings on record: MDA-MB-231, 72 h.

As to `COc1ccc(-c2ccc(Cn3cc(-c4cccc(N)c4)nn3)cc2)cn1`, the outcome in series [1] and in series [3] was Active. Moreover, the Activity entry in series [2] is “Non-Toxic”.

One may read the IC50 as the point on the concentration scale where inhibition reaches its midpoint. Low values mean inhibition by little substance, high ones a need for much substance. As to `CCN(CC)c1ccc2c(-c3ccccc3C(=O)NCCCCNC(=O)CSSCC(=O)n3nc(N)c4c(-c5ccc(NC(=O)Nc6cc(C)ccc6F)cc5)cccc43)c3ccc(=[N+](CC)CC)cc-3oc2c1`, the outcome in series [1] and in series [3] was Active. The IC50 in series [4] is 128 µM; in series [5] it was 30 nM; in series [6], 22.1 µM; in series [7], 85 µM. Further, the Activity result in series [2] is listed as “Non-Toxic”.

For the molecule `CCN(CC)c1ccc2c(-c3ccccc3C(=O)NCCCCNC(=O)CSSCC(=O)Nc3cccc(-c4cn(Cc5ccc(-c6ccc(OC)nc6)cc5)nn4)c3)c3ccc(=[N+](CC)CC)cc-3oc2c1`, the result in series [1] and in series [3] was Active. Moreover, the IC50 amounted to 15.8 µM in series [4], 2960 nM in series [5] and 35.9 µM in series [7]. Moreover, the Activity result in series [2] was “Non-Toxic”.
